Assay results as given in patent publication US20030118673A1, “Smilagenin and anzurogenin-D for the treatment of alzheimer's disease” (priority 1998, published 2003).

Experiments:
[1] = test system: muscarinic receptors on cardiac muscle cells; assay: Muscarinic receptor expression on cultured neonatal cardiac muscle cells (tritiated QNB binding); type: cell-based, Sprague Dawley rats
Description: 3. Cultured cardiac muscle cells obtained from neonatal Sprague Dawley rats. The cardiac muscle cells express muscarinic receptors, typically m2. The level of these receptors falls on prolonged culture and the effects of compounds of interest in preventing the fall in receptor numbers was investigated.
3 Effects of compounds on cultured cardiac muscle cells. Cardiac muscle cells were isolated from the ventricular muscle of neonatal Sprague Dawley rats using standard techniques. Cells were cultured in vitro and muscarinic receptor numbers expressed on cell surfaces membrane fragments after homogenization of cells harvested at various time points were estimated using specific binding of tritiated QNB. […] The experiments were therefore designed to investigate the effects of the various compounds in inhibiting this decline in receptor numbers.

[2] = test system: m2 receptors on CHO cells; assay: Expression of m2 receptors on transfected CHO cells (tritiated QNB binding); type: cell-based, Chinese hamster; conditions: for Effect on receptor expression, given as % increase compared to control (negative values in brackets): DMSO control; for Antagonism by tamoxifen of the increase in muscarinic receptor number: in the presence of tamoxifen
Protocol: 1. Chinese hamster ovary (CHO) cells transfected with the a DNA fragment coding for a muscarinic receptor. The cell line used for the majority of the experiments was a cell line expressing the m2 receptor.
1 CHO cell line experiments The effects of various compounds on the expression of m2 receptors on CHO cells transfected with DNA for the m2 receptor were investigated. Receptor. numbers were assayed using tritiated QNB binding and subtracting non-specific binding. Compounds were dissolved in DMSO and DMSO was used as a control. Compounds were tested at a range of final concentrations. Compounds were also tested in the presence and absence of tamoxifen to try to distinguish an estrogen receptor mediated mechanism. The results are summarized in the Table 2 below, where the compounds used in the invention appear in bold, and data on other sapogenins is given for comparative purposes: […]

[3] = target: T1, Progesterone receptor (Homo sapiens, UniProt P06401); assay: Activity at progesterone receptor
T1 sequence (P06401 1-933): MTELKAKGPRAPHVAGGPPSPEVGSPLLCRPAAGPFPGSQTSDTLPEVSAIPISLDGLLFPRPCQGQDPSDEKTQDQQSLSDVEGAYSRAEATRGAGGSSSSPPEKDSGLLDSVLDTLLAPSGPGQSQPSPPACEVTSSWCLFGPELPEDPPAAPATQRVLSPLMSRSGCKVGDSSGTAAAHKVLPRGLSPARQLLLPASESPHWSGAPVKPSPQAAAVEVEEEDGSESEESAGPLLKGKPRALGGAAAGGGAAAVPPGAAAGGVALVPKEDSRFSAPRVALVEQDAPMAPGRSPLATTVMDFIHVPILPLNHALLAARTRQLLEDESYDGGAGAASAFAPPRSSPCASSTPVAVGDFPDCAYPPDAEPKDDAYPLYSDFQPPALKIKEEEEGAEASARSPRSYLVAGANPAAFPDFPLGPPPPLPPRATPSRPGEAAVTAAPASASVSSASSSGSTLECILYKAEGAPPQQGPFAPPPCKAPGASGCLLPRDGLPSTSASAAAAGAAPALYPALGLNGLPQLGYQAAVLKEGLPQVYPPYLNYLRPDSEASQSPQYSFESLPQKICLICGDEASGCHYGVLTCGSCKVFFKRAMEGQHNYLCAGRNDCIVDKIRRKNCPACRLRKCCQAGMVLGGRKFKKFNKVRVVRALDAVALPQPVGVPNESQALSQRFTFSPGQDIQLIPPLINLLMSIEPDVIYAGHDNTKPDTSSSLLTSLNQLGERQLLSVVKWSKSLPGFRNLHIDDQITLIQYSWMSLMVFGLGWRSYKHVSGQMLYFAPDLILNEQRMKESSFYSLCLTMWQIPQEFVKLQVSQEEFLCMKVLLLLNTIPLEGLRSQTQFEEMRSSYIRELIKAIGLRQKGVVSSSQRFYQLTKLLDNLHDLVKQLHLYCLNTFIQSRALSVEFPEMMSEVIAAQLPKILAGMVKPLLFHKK
Description: (§1) In identifying compounds that would have use in the treatment of SDAT and other diseases characterised by reductions in receptor numbers or synaptic transmission, the inventors have given consideration to the need to identify compounds that would have the desired effect but would be devoid of any estrogenic effects, as these would be unacceptable, particularly in male patients. A number of the compounds claimed to have activity in patent application DE 4303214A1 have marked estrogenic activity and are therefore unacceptable.

[4] = target: T2, Glucocorticoid receptor (Homo sapiens, UniProt P04150); assay: Activity at glucocorticoid receptor
T2 sequence (P04150 1-777): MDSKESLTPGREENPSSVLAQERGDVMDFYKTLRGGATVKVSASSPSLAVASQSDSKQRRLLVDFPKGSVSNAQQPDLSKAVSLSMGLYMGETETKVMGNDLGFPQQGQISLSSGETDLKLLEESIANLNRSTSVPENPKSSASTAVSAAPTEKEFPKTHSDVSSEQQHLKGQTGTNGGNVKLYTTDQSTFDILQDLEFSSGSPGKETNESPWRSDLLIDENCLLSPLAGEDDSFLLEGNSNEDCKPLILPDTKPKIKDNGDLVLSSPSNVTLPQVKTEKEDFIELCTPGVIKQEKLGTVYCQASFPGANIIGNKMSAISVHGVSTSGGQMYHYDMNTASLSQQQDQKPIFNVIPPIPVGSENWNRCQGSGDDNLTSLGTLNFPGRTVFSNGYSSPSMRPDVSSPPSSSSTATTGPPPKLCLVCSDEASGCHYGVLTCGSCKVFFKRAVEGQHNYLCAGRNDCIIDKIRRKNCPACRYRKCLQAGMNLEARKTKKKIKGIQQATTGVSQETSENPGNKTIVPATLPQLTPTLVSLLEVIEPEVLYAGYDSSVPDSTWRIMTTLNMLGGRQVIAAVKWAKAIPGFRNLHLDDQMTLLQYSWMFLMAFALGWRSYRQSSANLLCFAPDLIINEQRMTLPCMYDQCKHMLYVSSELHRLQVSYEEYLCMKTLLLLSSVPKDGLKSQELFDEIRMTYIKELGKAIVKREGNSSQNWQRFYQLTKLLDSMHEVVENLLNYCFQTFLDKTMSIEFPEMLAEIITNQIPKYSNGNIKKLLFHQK
Description: as §1

[5] = target: T3, Testosterone receptor (Homo sapiens, UniProt P10275); assay: Activity at testosterone receptor
T3 sequence (P10275 1-920): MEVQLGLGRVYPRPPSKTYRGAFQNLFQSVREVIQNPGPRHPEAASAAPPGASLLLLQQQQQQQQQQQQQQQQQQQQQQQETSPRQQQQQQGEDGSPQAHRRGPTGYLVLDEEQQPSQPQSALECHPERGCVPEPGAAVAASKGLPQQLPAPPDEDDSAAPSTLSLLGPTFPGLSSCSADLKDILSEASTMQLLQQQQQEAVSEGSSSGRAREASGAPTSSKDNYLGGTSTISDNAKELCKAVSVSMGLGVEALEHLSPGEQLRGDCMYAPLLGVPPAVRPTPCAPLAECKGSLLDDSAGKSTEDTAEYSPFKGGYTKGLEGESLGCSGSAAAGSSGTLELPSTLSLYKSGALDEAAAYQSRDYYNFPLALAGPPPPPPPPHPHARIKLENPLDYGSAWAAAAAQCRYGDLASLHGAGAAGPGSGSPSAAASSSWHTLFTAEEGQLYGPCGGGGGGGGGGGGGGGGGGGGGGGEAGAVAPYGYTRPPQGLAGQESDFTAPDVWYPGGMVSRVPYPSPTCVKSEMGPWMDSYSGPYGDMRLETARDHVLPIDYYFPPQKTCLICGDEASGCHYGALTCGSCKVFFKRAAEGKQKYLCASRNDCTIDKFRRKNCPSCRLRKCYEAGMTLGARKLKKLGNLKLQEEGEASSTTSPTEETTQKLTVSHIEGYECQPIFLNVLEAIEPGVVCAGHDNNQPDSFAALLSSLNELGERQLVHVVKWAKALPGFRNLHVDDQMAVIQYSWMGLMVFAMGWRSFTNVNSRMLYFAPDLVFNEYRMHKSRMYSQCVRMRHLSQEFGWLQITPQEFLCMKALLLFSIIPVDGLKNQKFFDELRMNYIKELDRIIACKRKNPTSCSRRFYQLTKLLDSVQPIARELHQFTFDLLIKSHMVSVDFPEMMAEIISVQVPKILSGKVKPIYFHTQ
Description: as §1

[6] = test system: estrogen receptor; assay: Estrogenic activity
Description: as §1

[7] = molar concentration of compound 10^−5

m2 receptors on CHO cells, sequence (P08172 whole entry, the tested form may be a part): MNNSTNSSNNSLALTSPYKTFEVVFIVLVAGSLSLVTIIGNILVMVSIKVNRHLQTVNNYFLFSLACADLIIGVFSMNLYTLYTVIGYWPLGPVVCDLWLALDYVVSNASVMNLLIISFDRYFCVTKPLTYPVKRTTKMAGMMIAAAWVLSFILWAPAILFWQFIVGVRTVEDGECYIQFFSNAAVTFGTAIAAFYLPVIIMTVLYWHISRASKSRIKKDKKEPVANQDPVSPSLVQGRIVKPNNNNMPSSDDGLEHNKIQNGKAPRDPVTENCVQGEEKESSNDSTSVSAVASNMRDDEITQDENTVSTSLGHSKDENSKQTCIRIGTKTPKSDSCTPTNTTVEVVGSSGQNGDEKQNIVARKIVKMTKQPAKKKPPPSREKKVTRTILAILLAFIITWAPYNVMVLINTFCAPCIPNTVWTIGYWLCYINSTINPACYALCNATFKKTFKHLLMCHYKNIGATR

Molecule | Concentration of compound causing a significant increase in number of receptors expressed on neonatal cardiac muscle after 10 days in vitro culture [1] | Effect on receptor expression, given as % increase compared to control (negative values in brackets) [2, 7] [%] | Activity at progesterone receptor [3] | Antagonism by tamoxifen of the increase in muscarinic receptor number [2] | Effect on receptor expression, given as % increase compared to control (negative values in brackets) ([2]; molar concentration of compound 10^−6) [%] | Activity at glucocorticoid receptor [4] | Activity at testosterone receptor [5] | Estrogenic activity [6]
C[C@H]1CC[C@@]2(OC1)O[C@H]1C[C@H]3[C@@H]4CC[C@@H]5C[C@@H](O)CC[C@]5(C)[C@H]4CC[C@]3(C)[C@H]1[C@@H]2C [Sarsasapogenin, reference compound] | 10^−5 M | 34 | – | – | – | – | – | –
Smilagenin | 10^−6 M | 57 | neither compound was found to have any activity | not antagonized by tamoxifen | 18 | neither compound was found to have any activity | neither compound was found to have any activity | do not display estrogenic activity
Astragaloside [reference compound] | 10^−5 M | – | – | – | – | – | – | –
C[C@@H]1CC[C@@]2(OC1)O[C@H]1C[C@H]3[C@@H]4C[C@@H](O)[C@@]5(O)C[C@@H](O)CC[C@]5(C)[C@H]4CC[C@]3(C)[C@H]1[C@@H]2C [Anzurogenin D, Anzurogenin-D] | 10^−6 M | 22 | neither compound was found to have any activity | not antagonized by tamoxifen | – | neither compound was found to have any activity | neither compound was found to have any activity | do not display estrogenic activity
